According to ChEMBL document CHEMBL5053539, “THC shows activity against cultured Plasmodium falciparum” (Bioorg Med Chem Lett, 2021):

What was measured:
Plasmodium falciparum [1] = assay: Antiplasmodial activity against chloroquine-sensitive Plasmodium falciparum NF54; assay type: functional, organism-based
Plasmodium falciparum [2] = assay: Antiplasmodial activity against multidrug-resistant Plasmodium falciparum K1; assay type: functional, organism-based
Hemozoin = assay: Inhibition of Beta-hematin in Plasmodium falciparum cells assessed as hemozoin formation after 32 hrs by NP40 detergent-mediated assay

Compound	IC50 (Plasmodium falciparum [1]) [µM]	IC50 (Plasmodium falciparum [2]) [µM]	IC50 (Hemozoin) [µM]
CCCCCc1cc(O)c2c(c1)OC(C)(C)[C@@H]1CCC(C)=C[C@@H]21 [DRONABINOL]	0.79	0.72	11.3
C=C(C)[C@@H]1CCC(C)=C[C@H]1c1c(O)cc(CCCCC)cc1O [CANNABIDIOL]	4.1		51.1
CCN(CC)CCCC(C)Nc1ccnc2cc(Cl)ccc12 (stereo unspecified) [CHLOROQUINE]			16.8
